Marks after values point to notes of the source that are not given here.
Tests used:
healthy participants [1] = assay: Vital signs; format: in vivo, human
Method: Safety and tolerability were assessed throughout the study via treatment emergent adverse event (TEAE) monitoring, vital signs (blood pressure, pulse rate, respiration rate, oral temperature), physical examinations, 12-lead ECGs, and clinical laboratory parameters including complete blood count (CBC), coagulation, hematology, clinical chemistry assessments, and urinalysis. Safety laboratory tests were drawn at pre-dose and at 5, 24, 36 and 144-hours post-dose for 60–400 mg Cohorts; and at 24, 48, 72 and 144-hours post-dose for the 600 mg and Food Effect Cohort. […] All adverse events (AEs) were assessed by the investigator for severity and relationship to study medication or study procedures.
All AEs were coded using the Medical Dictionary for Regulatory Activities (MedDRA) version 22.0. All AEs were listed, and the emergence of TEAEs were categorized by body system affected and analyzed to determine whether they were related to treatment. […] Assessment of the grade of toxicity or relation to the study drug for each adverse event was determined by the Investigator. […] Changes in vital signs from pre-dose to 48 h post-dose were placed into 10-time bins and assessed using mixed-measures ANOVA with the time bins as the within-subjects factor and dose as the between-subjects factor. […]

healthy participants [2] = assay: Visual oddball ERP task; format: in vivo, human; settings: for Mean amplitude over the parietal cortex, Visual Oddball, Standard trials / Mean amplitude over the parietal cortex, Visual Oddball, Target trials: mean (SD)
Method: Following the cognitive battery, an electrophysiology recording was set up. Visual and auditory ERPs were recorded using a 128-channel Geodesic sensor net (EGI, Inc., Eugene, OR; [37, 38]). The electrophysiological recording was sampled at 250 Hz with filters set at 0.1–100 Hz. During data collection, all electrodes were referenced to vertex (Cz). The recording session lasted approximately 30 min.
Auditory and visual oddball tasks were performed to assess attention in auditory and visual modalities. In the auditory task, a pair of two pure tones (single formant) at 1000 and 1500 Hz were the stimuli. In the visual task, the stimuli were a pair of letters (X & O). The assignment of stimuli to standard and target conditions (70% & 30% of the trials respectively), was counterbalanced across participants. Each participant was asked to press a different button using their preferred hand upon presentation of the standard and the target stimulus. On average, auditory and visual tasks lasted 6–7 min each.
ERP processing and Analysis: Single-trial ERPs were derived by extracting a 100-ms pre-stimulus baseline and a 900 ms post-stimulus interval. The trials were screened for ocular and motor artifacts using automated procedures with standard threshold settings (NetStation 4.4, EGI, Inc) and verified using manual review. Data for electrodes characterized by consistent artifacts were replaced using the spherical spline interpolation algorithm. If more than 15 electrodes within a trial were noisy, the entire trial was discarded. Remaining artifact-free trials were averaged separately for each condition (standard vs. oddball; novel vs. repeated images), re-referenced to an average reference, and baseline corrected. For individual participant’s data to be included in the analysis, each condition average had to have a minimum of 10 artifact-free trials.
Statistical analysis focused on a priori selected electrode clusters corresponding to frontal, central, and parietal midline locations (Fz, Cz, Pz in 10–20 notation), confirmed using spatial principal components analysis. Mean amplitudes were calculated within 250–400 ms (frontal P3a), 300–500 ms (parietal P300), and 500–800 ms (parietal P600) temporal windows. These a-priori selected windows were confirmed using temporal principal components analysis.
Analyses for the auditory and visual oddball ERPs focused on the parietal (P300) and frontal (P3a) responses to standard and target stimuli. Differences in the amplitude, latency, and scalp topography of the responses were examined. […] For the incidental memory paradigm, differences in the mean amplitude of the parietal P300/P600 responses to repeated vs. novel presentations. The amplitude of the parietal P300/P600 waveform measures stimulus recognition. A larger positive amplitude for repeated compared to novel images indicates spontaneous formation of a memory trace.
Auditory and visual oddball tasks were performed to assess attention in auditory and visual modalities (Comerchero & Polich, 1999; Polich, 2007). In the auditory task, a pair of two pure tones (single formant) at 1000 and 1500 Hz were the stimuli. Tones were equated in duration (300 ms) and rise/decay times. Tones were presented at 75 dB SPL (measured at the ear) through a speaker positioned 1 meter in front of the participant. In the visual task, the stimuli were a pair of letters (X & O). All stimuli were presented in random order for 500 ms in the center of a computer monitor positioned 1 meter in front of the participant. For both auditory and visual tasks, 200 trials were presented with the inter-stimulus interval varying randomly between 1000-1300 ms to prevent habituation to stimulus onset. The assignment of stimuli to standard and target conditions (70% & 30% of the trials respectively), was counterbalanced across participants. […]

[3] = SAD study, 120mg, Post-Drug, n = 5
[4] = SAD study, 120mg, Pre-Drug, n = 5
[5] = SAD study, 240mg, Post-Drug, n = 5
[6] = VU319 120 mg, fasting, post-drug session, n = 9
[7] = VU319 120 mg, fasting, pre-drug session, n = 9
[8] = VU319 120 mg, fed, pre-drug session, n = 9

## Cn1cc2c(-c3cc(F)c(CN4Cc5ncccc5C4=O)c(F)c3)cccc2n1 [VU319]
Healthy participants [1]; SAD study
  vitals measurements over the first 48 h post-dose: no significant dose-by-time interactions
Healthy participants [1]; food effect study
  vitals measurements over the first 48 h post-dose: no significant dose-by-time interactions
Healthy participants [2]; 120 mg, fasted condition
  Visual oddball P300 amplitude, targets vs standards: no difference
Healthy participants [2]; 120 mg, fed, post-dose session, p = 0.061
  Visual oddball P300 amplitude, targets vs standards, effect size d: 0.73
Healthy participants [2]; 120 mg, fed, pre-dose session, p = 0.039
  Visual oddball P300 amplitude, targets vs standards, effect size d: 0.82
Healthy participants [2]; 400 mg, p = 0.05
  Visual oddball parietal amplitude, target vs standard, post- vs pre-dose, effect size d: 1.28
Healthy participants [2]; 600 mg, t < 1
  Visual oddball parietal amplitude, target vs standard, post- vs pre-dose effect: not found
Healthy participants [2]; SAD study, 60 mg, Post-Drug
  Mean amplitude over the parietal cortex, Visual Oddball, Standard trials: -0.66 (1.57) µV
  Mean amplitude over the parietal cortex, Visual Oddball, Target trials: 1.36 (0.91) µV
Healthy participants [2]; SAD study, 60 mg, Pre-Drug
  Mean amplitude over the parietal cortex, Visual Oddball, Standard trials: -0.13 (1.23) µV
  Mean amplitude over the parietal cortex, Visual Oddball, Target trials: 1.19 (1.9) µV
Healthy participants [2]; [3]
  Mean amplitude over the parietal cortex, Visual Oddball, Standard trials: 0.01 (1.05)^# µV
  Mean amplitude over the parietal cortex, Visual Oddball, Target trials: 1.5 (1.26)^# µV
Healthy participants [2]; [4]
  Mean amplitude over the parietal cortex, Visual Oddball, Standard trials: 0.99 (1.12)^# µV
  Mean amplitude over the parietal cortex, Visual Oddball, Target trials: 2.71 (1.58)^# µV
Healthy participants [2]; [5]
  Mean amplitude over the parietal cortex, Visual Oddball, Standard trials: 1.02 (1.44)^# µV
  Mean amplitude over the parietal cortex, Visual Oddball, Target trials: 2.2 (2.28)^# µV
Healthy participants [2]; SAD study, 240 mg, Pre-Drug
  Mean amplitude over the parietal cortex, Visual Oddball, Standard trials: 0.32 (1.04) µV
  Mean amplitude over the parietal cortex, Visual Oddball, Target trials: 1.93 (1.88) µV
Healthy participants [2]; SAD study, 400 mg, Post-Drug
  Mean amplitude over the parietal cortex, Visual Oddball, Standard trials: 1.48 (0.73) µV
  Mean amplitude over the parietal cortex, Visual Oddball, Target trials: 2.7 (1.92) µV
Healthy participants [2]; SAD study, 400 mg, Pre-Drug
  Mean amplitude over the parietal cortex, Visual Oddball, Standard trials: 1.04 (1.03) µV
  Mean amplitude over the parietal cortex, Visual Oddball, Target trials: 1.75 (1.5) µV
Healthy participants [2]; SAD study, 600 mg, Post-Drug
  Mean amplitude over the parietal cortex, Visual Oddball, Standard trials: 1.47 (1.1) µV
  Mean amplitude over the parietal cortex, Visual Oddball, Target trials: 3.1 (2.23) µV
Healthy participants [2]; SAD study, 600 mg, Pre-Drug
  Mean amplitude over the parietal cortex, Visual Oddball, Standard trials: 1.46 (2.51) µV
  Mean amplitude over the parietal cortex, Visual Oddball, Target trials: 3.46 (2.31) µV
Healthy participants [2]; [6]
  Mean amplitude over the parietal cortex, Visual Oddball, Standard trials: -0.16 (1.73) µV
  Mean amplitude over the parietal cortex, Visual Oddball, Target trials: 0.72 (3.1) µV
Healthy participants [2]; [7]
  Mean amplitude over the parietal cortex, Visual Oddball, Standard trials: -0.16 (1.28) µV
  Mean amplitude over the parietal cortex, Visual Oddball, Target trials: 0.71 (1.6) µV
Healthy participants [2]; VU319 120 mg, fed, post-drug session, n = 9
  Mean amplitude over the parietal cortex, Visual Oddball, Standard trials: 0.25 (0.62) µV
Healthy participants [2]; [8]
  Mean amplitude over the parietal cortex, Visual Oddball, Standard trials: -0.29 (1.17) µV
  Mean amplitude over the parietal cortex, Visual Oddball, Target trials: 0.91 (1.49) µV

From PMC12211128, “Safety, tolerability, pharmacokinetic and pharmacodynamic effects of the muscarinic M1 positive allosteric modulator VU0467319 for Alzheimer’s disease: a single ascending-dose study in healthy participants” (Alzheimer's Research & Therapy, 2025)
